Source: ChEMBL document CHEMBL5678810

What was measured:
[1] = molecular target: Activin receptor type-2B (Homo sapiens) (UniProt Q13705); assay: Inhibition of T7 bacteriophage fused human ACVR2B at 10 uM by KINOMEscan analysis relative to control
[2] = molecular target: Calcium/calmodulin-dependent protein kinase type IV (Homo sapiens) (UniProt Q16566); assay: Inhibition of T7 bacteriophage fused human CAMK4 at 10 uM by KINOMEscan analysis relative to control
[3] = system: Receptor-type tyrosine-protein kinase FLT3 (Homo sapiens), P36888 [R834Q]; assay: Inhibition of T7 bacteriophage fused human FLT3 R834Q mutant at 10 uM by KINOMEscan analysis relative to control
[4] = molecular target: Glycogen synthase kinase-3 alpha (Homo sapiens) (UniProt P49840); assay: Inhibition of T7 bacteriophage fused human GSK3A at 10 uM by KINOMEscan analysis relative to control
[5] = molecular target: Serine/threonine-protein kinase NIM1 (Homo sapiens) (UniProt Q8IY84); assay: Inhibition of T7 bacteriophage fused human NIM1 at 10 uM by KINOMEscan analysis relative to control
[6] = molecular target: Serine/threonine-protein kinase 25 (Homo sapiens) (UniProt O00506); assay: Inhibition of T7 bacteriophage fused human YSK1 at 10 uM by KINOMEscan analysis relative to control
[7] = molecular target: Tyrosine-protein kinase FRK (Homo sapiens) (UniProt P42685); assay: Inhibition of T7 bacteriophage fused human FRK at 10 uM by KINOMEscan analysis relative to control; values are per cent of control
[8] = molecular target: Glycogen synthase kinase-3 beta (Homo sapiens) (UniProt P49841); assay: Inhibition of T7 bacteriophage fused human GSK3B at 10 uM by KINOMEscan analysis relative to control; values are per cent of control
[9] = molecular target: MAP kinase-interacting serine/threonine-protein kinase 1 (Homo sapiens) (UniProt Q9BUB5); assay: Inhibition of T7 bacteriophage fused human MKNK1 at 10 uM by KINOMEscan analysis relative to control; values are per cent of control
[10] = molecular target: Myosin-IIIa (Homo sapiens) (UniProt Q8NEV4); assay: Inhibition of T7 bacteriophage fused human MYO3A at 10 uM by KINOMEscan analysis relative to control; values are per cent of control
[11] = molecular target: Casein kinase I isoform delta (Homo sapiens) (UniProt P48730); assay: Inhibition of T7 bacteriophage fused human CSNK1D at 10 uM by KINOMEscan analysis relative to control; values are per cent of control
Sequence of Casein kinase I isoform delta (Homo sapiens) (P48730 whole entry, looked up, the tested form may be a part, canonical isoform): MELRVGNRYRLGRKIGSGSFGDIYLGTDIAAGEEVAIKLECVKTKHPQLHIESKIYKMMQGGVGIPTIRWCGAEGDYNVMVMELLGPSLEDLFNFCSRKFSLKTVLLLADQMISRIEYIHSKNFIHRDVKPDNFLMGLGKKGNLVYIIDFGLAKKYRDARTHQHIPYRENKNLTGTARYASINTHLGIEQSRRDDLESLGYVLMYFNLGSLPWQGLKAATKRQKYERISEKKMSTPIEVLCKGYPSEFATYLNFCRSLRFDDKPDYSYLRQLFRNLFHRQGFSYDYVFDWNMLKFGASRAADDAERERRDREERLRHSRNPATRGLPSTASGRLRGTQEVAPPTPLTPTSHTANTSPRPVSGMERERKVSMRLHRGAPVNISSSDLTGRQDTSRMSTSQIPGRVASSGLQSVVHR

Sequence of Activin receptor type-2B (Homo sapiens) (Q13705 whole entry, the tested form may be a part): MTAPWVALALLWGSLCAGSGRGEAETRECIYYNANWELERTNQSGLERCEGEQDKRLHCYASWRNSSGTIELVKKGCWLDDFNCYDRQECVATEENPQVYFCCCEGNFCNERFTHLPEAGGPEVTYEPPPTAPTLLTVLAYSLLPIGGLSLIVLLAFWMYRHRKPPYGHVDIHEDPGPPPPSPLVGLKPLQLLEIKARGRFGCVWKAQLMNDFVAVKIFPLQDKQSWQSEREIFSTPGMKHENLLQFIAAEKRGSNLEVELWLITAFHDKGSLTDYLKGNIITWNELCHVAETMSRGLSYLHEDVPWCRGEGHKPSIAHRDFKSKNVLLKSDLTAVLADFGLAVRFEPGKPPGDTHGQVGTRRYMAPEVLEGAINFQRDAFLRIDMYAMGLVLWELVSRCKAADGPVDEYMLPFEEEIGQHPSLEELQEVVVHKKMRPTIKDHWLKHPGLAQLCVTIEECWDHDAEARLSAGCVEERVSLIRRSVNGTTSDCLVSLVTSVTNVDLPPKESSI
Sequence of MAP kinase-interacting serine/threonine-protein kinase 1 (Homo sapiens) (Q9BUB5 whole entry, looked up, the tested form may be a part): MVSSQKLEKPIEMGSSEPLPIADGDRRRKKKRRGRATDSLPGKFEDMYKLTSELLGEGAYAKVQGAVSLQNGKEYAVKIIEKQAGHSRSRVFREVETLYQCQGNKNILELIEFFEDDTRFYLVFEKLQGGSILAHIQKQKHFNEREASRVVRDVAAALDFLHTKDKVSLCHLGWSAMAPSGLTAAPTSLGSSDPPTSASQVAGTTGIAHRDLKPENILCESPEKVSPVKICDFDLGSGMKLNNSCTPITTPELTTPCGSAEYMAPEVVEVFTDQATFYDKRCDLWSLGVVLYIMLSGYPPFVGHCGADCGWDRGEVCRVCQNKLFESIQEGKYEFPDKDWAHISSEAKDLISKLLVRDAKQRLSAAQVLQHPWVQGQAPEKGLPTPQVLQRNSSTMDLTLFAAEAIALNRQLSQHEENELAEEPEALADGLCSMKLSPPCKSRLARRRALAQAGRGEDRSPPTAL
Sequence of Tyrosine-protein kinase FRK (Homo sapiens) (P42685 whole entry, the tested form may be a part): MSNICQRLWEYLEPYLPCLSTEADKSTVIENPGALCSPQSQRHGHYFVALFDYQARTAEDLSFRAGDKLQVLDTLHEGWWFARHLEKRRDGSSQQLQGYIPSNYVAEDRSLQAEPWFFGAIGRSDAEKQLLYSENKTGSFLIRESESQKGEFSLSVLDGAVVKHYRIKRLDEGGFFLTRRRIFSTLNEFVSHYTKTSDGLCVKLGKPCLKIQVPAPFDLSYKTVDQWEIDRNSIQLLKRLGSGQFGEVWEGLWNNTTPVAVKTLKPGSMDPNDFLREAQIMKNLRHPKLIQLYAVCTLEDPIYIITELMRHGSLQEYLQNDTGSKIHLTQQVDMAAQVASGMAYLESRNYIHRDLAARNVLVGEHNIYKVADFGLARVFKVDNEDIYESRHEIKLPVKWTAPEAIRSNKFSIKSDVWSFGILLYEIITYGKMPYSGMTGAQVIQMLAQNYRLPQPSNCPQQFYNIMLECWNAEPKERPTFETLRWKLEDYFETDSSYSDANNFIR
Sequence of Serine/threonine-protein kinase 25 (Homo sapiens) (O00506 whole entry, looked up, the tested form may be a part): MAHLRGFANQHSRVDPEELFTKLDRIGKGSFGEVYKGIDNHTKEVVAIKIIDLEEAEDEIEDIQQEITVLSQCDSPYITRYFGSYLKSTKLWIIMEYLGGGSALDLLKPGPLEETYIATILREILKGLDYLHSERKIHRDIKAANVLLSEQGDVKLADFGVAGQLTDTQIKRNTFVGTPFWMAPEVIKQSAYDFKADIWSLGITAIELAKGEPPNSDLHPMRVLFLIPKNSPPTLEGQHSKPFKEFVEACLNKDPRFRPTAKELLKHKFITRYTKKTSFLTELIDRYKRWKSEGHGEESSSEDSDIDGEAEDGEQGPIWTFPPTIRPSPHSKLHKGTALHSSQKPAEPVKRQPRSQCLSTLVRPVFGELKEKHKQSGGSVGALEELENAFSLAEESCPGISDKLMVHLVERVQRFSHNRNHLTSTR
Sequence of Serine/threonine-protein kinase NIM1 (Homo sapiens) (Q8IY84 whole entry, the tested form may be a part): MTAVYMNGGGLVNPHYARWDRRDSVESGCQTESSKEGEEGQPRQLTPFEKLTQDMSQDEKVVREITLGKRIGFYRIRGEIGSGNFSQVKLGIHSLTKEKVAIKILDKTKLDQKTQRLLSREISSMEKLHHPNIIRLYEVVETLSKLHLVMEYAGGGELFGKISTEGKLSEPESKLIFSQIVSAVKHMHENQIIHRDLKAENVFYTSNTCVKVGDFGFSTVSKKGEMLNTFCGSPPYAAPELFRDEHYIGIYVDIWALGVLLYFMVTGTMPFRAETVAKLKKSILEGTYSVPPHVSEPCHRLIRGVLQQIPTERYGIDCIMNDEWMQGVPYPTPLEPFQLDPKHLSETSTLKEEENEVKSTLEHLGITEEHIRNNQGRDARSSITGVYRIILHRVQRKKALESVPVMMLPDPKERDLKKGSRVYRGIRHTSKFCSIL
Sequence of Myosin-IIIa (Homo sapiens) (Q8NEV4 whole entry, the tested form may be a part, canonical isoform): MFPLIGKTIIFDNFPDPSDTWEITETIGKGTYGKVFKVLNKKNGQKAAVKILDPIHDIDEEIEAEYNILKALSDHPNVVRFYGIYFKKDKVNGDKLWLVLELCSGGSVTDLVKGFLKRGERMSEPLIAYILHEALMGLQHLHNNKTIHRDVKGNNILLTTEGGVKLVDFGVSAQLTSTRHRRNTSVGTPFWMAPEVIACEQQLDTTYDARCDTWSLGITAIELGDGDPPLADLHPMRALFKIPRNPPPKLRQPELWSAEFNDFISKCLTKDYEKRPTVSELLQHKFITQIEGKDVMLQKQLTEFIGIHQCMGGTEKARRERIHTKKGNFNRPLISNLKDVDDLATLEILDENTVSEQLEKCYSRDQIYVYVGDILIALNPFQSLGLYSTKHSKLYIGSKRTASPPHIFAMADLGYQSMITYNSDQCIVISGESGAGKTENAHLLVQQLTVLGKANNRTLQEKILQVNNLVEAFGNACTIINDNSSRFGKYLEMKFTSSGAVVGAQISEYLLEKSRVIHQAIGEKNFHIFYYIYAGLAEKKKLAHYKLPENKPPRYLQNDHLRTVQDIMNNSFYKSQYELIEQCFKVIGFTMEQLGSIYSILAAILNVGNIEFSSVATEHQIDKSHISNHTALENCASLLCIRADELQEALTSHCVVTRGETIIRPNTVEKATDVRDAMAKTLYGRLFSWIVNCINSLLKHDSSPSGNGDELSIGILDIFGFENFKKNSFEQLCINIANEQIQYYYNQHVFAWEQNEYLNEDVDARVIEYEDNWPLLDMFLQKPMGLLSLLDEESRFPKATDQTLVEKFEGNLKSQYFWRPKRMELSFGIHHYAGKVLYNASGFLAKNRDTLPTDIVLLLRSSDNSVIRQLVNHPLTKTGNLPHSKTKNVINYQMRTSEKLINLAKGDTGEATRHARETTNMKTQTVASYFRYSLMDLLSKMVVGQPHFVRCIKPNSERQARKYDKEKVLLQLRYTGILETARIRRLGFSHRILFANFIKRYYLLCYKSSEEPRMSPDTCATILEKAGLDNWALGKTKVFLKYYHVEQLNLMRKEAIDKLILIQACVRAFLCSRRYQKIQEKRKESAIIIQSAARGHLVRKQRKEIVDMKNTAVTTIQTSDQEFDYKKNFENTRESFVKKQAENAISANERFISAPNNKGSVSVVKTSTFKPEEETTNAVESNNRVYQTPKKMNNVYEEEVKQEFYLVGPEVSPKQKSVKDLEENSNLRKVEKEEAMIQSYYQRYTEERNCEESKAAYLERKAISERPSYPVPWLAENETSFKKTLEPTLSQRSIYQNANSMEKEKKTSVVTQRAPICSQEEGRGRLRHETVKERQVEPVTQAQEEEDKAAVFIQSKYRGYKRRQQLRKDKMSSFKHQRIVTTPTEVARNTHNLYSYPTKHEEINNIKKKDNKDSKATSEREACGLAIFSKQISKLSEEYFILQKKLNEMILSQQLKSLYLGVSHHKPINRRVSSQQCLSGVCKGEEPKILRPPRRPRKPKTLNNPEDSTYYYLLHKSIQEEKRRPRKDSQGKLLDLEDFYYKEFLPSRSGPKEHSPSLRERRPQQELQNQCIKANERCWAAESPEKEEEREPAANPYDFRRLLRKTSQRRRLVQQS
Sequence of Glycogen synthase kinase-3 alpha (Homo sapiens) (P49840 2-483 limits assumed): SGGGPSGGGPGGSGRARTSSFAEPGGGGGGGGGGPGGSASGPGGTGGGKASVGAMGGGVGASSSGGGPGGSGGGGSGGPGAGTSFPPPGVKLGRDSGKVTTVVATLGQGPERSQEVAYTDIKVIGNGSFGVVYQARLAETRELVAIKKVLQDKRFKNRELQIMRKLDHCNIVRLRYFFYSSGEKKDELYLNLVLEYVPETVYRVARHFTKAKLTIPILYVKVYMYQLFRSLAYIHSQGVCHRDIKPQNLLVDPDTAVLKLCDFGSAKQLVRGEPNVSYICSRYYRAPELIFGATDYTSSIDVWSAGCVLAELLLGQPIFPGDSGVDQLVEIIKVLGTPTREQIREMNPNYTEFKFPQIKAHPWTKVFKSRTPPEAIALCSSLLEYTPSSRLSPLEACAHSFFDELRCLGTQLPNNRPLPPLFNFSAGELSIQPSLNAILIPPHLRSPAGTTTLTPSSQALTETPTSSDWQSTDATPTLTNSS

In the case of `COc1cc(N2CCC(N3CCN(C)CC3)CC2)ccc1Nc1ncc2c(n1)N(C)c1ccccc1C(=O)N2C`, the inhibition [1] is reported as 100%, the inhibition [2] is reported as 79% and the inhibition [3] is reported as 100%. It also gave an inhibition [4] of 100%, an inhibition [5] of 100% and an inhibition [6] of 68%. For the same compound, the residual activity [7] was 34%, the residual activity [8] was 88% and the residual activity [9] was 50%. For the same compound, the residual activity [10] was 94% and the residual activity [11] was 81%.
